The molecules below were run against T1, Thromboxane-A synthase (Homo sapiens, UniProt P24557) (assay: Inhibitory activity against Thromboxane A2 synthase from human platelet microsomes.). Details: not given.
T1 sequence (P24557 whole entry): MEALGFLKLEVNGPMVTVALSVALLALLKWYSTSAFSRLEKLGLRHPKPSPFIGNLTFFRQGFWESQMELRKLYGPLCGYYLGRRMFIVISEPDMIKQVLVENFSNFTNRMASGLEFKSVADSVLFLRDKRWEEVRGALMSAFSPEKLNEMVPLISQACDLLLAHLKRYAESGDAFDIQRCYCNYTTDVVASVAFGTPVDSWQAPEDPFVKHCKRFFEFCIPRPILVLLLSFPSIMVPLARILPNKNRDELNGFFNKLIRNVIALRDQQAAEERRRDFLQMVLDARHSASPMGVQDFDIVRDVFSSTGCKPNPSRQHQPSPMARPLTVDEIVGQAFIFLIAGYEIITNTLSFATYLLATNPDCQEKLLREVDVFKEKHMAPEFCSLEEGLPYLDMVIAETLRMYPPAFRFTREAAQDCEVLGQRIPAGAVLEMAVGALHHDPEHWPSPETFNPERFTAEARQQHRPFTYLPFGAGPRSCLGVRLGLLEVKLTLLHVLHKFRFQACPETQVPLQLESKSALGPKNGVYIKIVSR

SMILES | IC50
O=C(O)CCc1cc(CCNS(=O)(=O)c2ccc(Cl)cc2)cc(Cc2ccncc2)c1 | 47 nM

What follows are molecules tested against T2, Thromboxane A2 receptor (Rattus norvegicus, UniProt P34978) (assay: In vitro Thromboxane A2 (TXA2) receptor antagonism was tested by its ability to inhibit the contraction of rat aorta induced by the stable thromboxane agonist U-46,619). Details: read-out: pA2 (converted).
T2 sequence (P34978 whole entry): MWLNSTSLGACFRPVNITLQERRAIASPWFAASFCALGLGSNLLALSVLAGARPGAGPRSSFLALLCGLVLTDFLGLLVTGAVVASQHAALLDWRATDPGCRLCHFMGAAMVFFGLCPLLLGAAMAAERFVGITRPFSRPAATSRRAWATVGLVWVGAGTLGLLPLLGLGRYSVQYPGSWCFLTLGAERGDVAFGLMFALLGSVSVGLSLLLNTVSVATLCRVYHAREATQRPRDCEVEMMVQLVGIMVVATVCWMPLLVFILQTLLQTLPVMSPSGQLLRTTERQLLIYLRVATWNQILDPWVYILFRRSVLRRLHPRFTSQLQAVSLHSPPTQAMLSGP
Format: functional, tissue-based

SMILES | Kb
O=C(O)CCc1cc(CCNS(=O)(=O)c2ccc(Cl)cc2)cc(C(O)c2ccc(F)cc2)c1 (stereo not drawn) | 0.2 nM
COc1ccccc1Cc1cc(CCNS(=O)(=O)c2ccc(Cl)cc2)cc(CCC(=O)O)c1 | 0.0631 nM
O=C(O)CCc1cc(CCNS(=O)(=O)c2ccc(Cl)cc2)cc(Cc2cccc(F)c2)c1 | 0.0794 nM
O=C(O)CCc1cccc(CCNS(=O)(=O)c2ccc(Cl)cc2)c1 | 2 nM
CS(=O)(=O)c1ccc(Cc2cc(CCNS(=O)(=O)c3ccc(Cl)cc3)cc(CCC(=O)O)c2)cc1 | 0.0631 nM
O=C(O)CCc1cc(CCNS(=O)(=O)c2ccc(Cl)cc2)cc(Cc2ccc(F)cc2)c1 | 0.0251 nM
COc1ccc(C(=O)c2cc(CCNS(=O)(=O)c3ccc(Cl)cc3)cc(CCC(=O)O)c2)cc1 | 0.0251 nM
O=C(O)CCc1cc(CCNS(=O)(=O)c2ccc(Cl)cc2)cc(Cc2ccncc2)c1 | 0.00251 nM
O=C(O)CCc1cc(CCNS(=O)(=O)c2ccc(Cl)cc2)cc(Cc2ccccc2)c1 | 0.0158 nM
CS(=O)(=O)c1ccc(C(=O)c2cc(CCNS(=O)(=O)c3ccc(Cl)cc3)cc(CCC(=O)O)c2)cc1 | 0.316 nM
N#Cc1ccc(C(=O)c2cc(CCNS(=O)(=O)c3ccc(Cl)cc3)cc(CCC(=O)O)c2)cc1 | 0.0398 nM
COc1ccc(Cc2cc(CCNS(=O)(=O)c3ccc(Cl)cc3)cc(CCC(=O)O)c2)cc1 | 0.00398 nM
O=C(O)CCc1cc(CCNS(=O)(=O)c2ccc(Cl)cc2)cc(Cc2cccnc2)c1 | 0.398 nM
CC(c1ccc(F)cc1)c1cc(CCNS(=O)(=O)c2ccc(Cl)cc2)cc(CCC(=O)O)c1 (stereo not drawn) | 0.00398 nM
O=C(O)CCc1cc(CCNS(=O)(=O)c2ccc(Cl)cc2)cc(C(=O)c2ccc(F)cc2)c1 | 0.1 nM

Each molecule was assayed on Thromboxane A2 receptor (Canis lupus familiaris) (assay: Tested for peroral dose required to cause complete blockade of the response to the thromboxane receptor agonist U-46,619 (1 uM) for 48 hours). Details: not given.

SMILES | Activity
O=C(O)CCc1cc(CCNS(=O)(=O)c2ccc(Cl)cc2)cc(Cc2ccc(F)cc2)c1 | 1 mg/kg

The molecules below were run on Thromboxane A2 receptor (Canis lupus familiaris) (assay: Tested for the peroral dose required to maintain complete thromboxane receptor antagonism for > 12 hours.). Details: not given.

SMILES | Activity
O=C(O)CCc1cc(CCNS(=O)(=O)c2ccc(Cl)cc2)cc(Cc2ccc(F)cc2)c1 | 0.1 mg/kg
